Patent US4931391A, “Method for preservation of nitrile hydration activity” (Mitsubishi Rayon Kabushiki Kaisha, priority 1986, dated 1990)
Where two headings read alike, the source gives them in different places.

Columns and labels:
[1] = biological target: T1, (Rhodococcus erythropolis, UniProt P13448+P13449); assay: Preservation of nitrile hydration activity of cell extract prepared as in Comparison Example 1, stabilizer added to extract; type: biochemical, Corynebacterium strain N-774(FERM P-4446)
T1 sequence (P13448 2-207 limits assumed): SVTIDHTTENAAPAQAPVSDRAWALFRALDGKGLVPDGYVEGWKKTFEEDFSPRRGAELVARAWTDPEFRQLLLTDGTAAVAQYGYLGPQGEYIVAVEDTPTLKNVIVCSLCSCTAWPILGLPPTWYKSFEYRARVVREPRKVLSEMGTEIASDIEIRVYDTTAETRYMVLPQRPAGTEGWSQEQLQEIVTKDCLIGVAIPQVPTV
T1 sequence (P13449 1-212): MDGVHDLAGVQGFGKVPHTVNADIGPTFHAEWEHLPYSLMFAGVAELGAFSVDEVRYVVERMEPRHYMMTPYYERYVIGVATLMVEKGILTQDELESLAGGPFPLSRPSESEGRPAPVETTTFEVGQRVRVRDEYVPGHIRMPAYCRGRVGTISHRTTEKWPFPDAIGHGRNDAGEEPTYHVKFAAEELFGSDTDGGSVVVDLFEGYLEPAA

immobilized nitrilase = immobilized nitrilase (Rhodococcus erythropolis, UniProt P13448+P13449); assay: Preservation of nitrile hydration activity of immobilized enzyme (polyacrylamide gel); type: biochemical, Corynebacterium strain N-774(FERM P-4446); settings: 0° C., 20 minutes
Method: 40 ml of a cell extract prepared as in Example 1, 4.5 g of acrylamide, 0.5 g of N,N'-methylenebisacrylamide, and 40 ml of M/20 phosphate buffer (containing 10 g/l of ammonium isobutyrate, pH 6.0) were mixed to form a homogeneous suspension. To this suspension were added 5 ml of a 5% aqueous solution of dimethylaminopropionitrile and 10 ml of a 1.0% aqueous solution of potassium persulfate, and the mixture was maintained at 10° C. for 30 minutes to cause polymerization. A mass of cell-containing gel obtained was crushed into small particles, which were thoroughly washed with M/20 phosphate buffer containing 5 g/l of ammonium isobutyrate, pH 7.0, whereby approximately 90 g of an immobilized enzyme was obtained.
The washed, immobilized enzyme thus obtained was placed in the same buffer containing 5 g/l of isobutyric acid and left standing at 20° C. for 3 days.
The nitrile hydration activity levels of the gel samples were measured as follows before and after the respective immobilized enzymes were left standing.
1 g of immobilized gel was mixed with 5 g of acrylonitrile and 97 ml of M/20 phosphate buffer (pH 7.7), and the mixture was subjected to reaction at 0° C. for 20 minutes with stirring. The quantities of acrylamide in the respective reaction solutions were determined by gas chromatography.

[2] = 48 h; 10 mg organic acid in 2.5 ml buffer + 2.5 ml extract; pH 6.5; 20° C. for 2 days; read-out: % Residual Activity (Organic Acid Added)
[3] = 48 h, pH 6.5; read-out: % Residual Activity (Organic Acid Added)
[4] = 48 h, pH 6.5; read-out: % Residual Activity (Nitrile Added)
[5] = 48 h, pH 6, read-out: % Residual Activity
[6] = 48 h; 10 mg amide in 2.5 ml buffer + 2.5 ml extract; pH 6.5; 20° C. for 2 days; read-out: % Residual Activity (Amide Added)
[7] = pH 6, read-out: % Residual Activity
[8] = stabilizer concentration 0.01 g/l; pH 6.0; extract 0.7×10^3 U/ml; 20° C. for 2 days; read-out: % Residual Activity
[9] = stabilizer concentration 1.0 g/l; pH 6.0; […]; 20° C. for 2 days; read-out: % Residual Activity
[10] = stabilizer concentration 5.0 g/l; pH 6.0; extract 0.7×10^3 U/ml; 20° C. for 2 days; read-out: % Residual Activity
[11] = stabilizer concentration 50 g/l; pH 6.0; extract 0.7×10^3 U/ml; 20° C. for 2 days; read-out: % Residual Activity
[12] = 48 h; 10 mg nitrile in 2.5 ml buffer + 2.5 ml extract (0.8×10^3 U/ml); pH 6.5; 20° C. for 2 days; read-out: % Residual Activity (Nitrile Added)
[13] = 48 h, pH 6.5, read-out: % Residual Activity (Organic Acid Added)
[14] = 48 h, pH 7, read-out: % Residual Activity
[15] = stabilizer concentration 20 g/l; pH 6.0; […]; 20° C. for 2 days; read-out: % Residual Activity
[16] = 48 h, pH 6.5; read-out: % Residual Activity (Amide Added)

CCCCC(=O)O [Valeric acid]
activity at 2000 µg/mL [1, 2]: 81%

O=C(O)c1ccccc1 [Benzoic acid]
activity at 2000 µg/mL [1, 3]: 48%

NC(=O)CCl [Chloroacetamide]
activity at 2000 µg/mL ([1]; 48 h, pH 6.5, read-out: % Residual Activity (Amide Added)): 60%

N#CCC#N [Malononitrile]
activity at 2000 µg/mL ([1]; 48 h; pH 6.5; 20° C. for 2 days; read-out: % Residual Activity (Nitrile Added)): 55%

C=CC#N [Acrylonitrile]
activity at 2000 µg/mL [1, 4]: 56%

N#CCCC#N [Succinonitrile]
activity at 2000 µg/mL [1, 4]: 70%

CC(C)C(N)=O [Isobutyramide]
activity at 25 mg [1, 5]: 80%
activity at 25 mg ([1]; 48 h, pH 7; read-out: % Residual Activity): 74%
activity at 2000 µg/mL [1, 6]: 85%
activity at 25 mg ([1]; 48 h; pH 5.0; 25 mg stabilizer in 2.5 ml buffer + 2.5 ml extract (1×10^3 U/ml); 20° C. for 2 days; read-out: % Residual Activity): 4%
activity at 25 mg ([1]; 48 h; pH 8.0; 25 mg stabilizer in 2.5 ml buffer + 2.5 ml extract (1×10^3 U/ml); 20° C. for 2 days; read-out: % Residual Activity): 48%

C=C(C)C(N)=O [Methacrylamide]
activity at 2000 µg/mL [1, 6]: 70%

CCCC(N)=O [n-Butyramide]
activity at 2000 µg/mL [1, 6]: 90%
remaining activity at 20000 µg/mL [1, 7]: 78%
remaining activity at 10 µg/mL [1, 8]: 60%
remaining activity at 100 µg/mL ([1]; stabilizer concentration 0.1 g/l; pH 6.0; […]; 20° C. for 2 days; read-out: % Residual Activity): 85%
remaining activity at 1000 µg/mL [1, 9]: 85%
remaining activity at 5000 µg/mL [1, 10]: 89%
remaining activity at 50000 µg/mL [1, 11]: 63%

O=C(O)CC(O)C(=O)O (stereo not shown) [Malic acid]
activity at 2000 µg/mL [1, 2]: 43%

O=C(O)C(O)CO (racemic) [DL-Glyceric acid]
activity at 2000 µg/mL [1, 2]: 60%

N#CCCN [β-Aminopropionitrile]
activity at 2000 µg/mL [1, 4]: 55%

CCCCCC(N)=O [n-Capronamide]
activity at 2000 µg/mL [1, 6]: 75%

N#Cc1cccnc1 [Nicotinonitrile]
activity at 2000 µg/mL [1, 4]: 43%

N#CCC(=O)O [Cyanoacetic acid]
activity at 2000 µg/mL [1, 12]: 54%

CC(C)C(=O)O [Isobutyric acid]
Quant. of AA produced (%) after enzyme was left standing (immobilized nitrilase; after standing at 20° C. for 3 days in buffer containing 5 g/l of isobutyric acid, 1 g gel): 0.60%
Quant. of AA produced (%) before enzyme was left standing (immobilized nitrilase; immobilized gel, 1 g with 5 g acrylonitrile, immobilized and washed with stabilizer): 0.71%
activity at 25 mg ([1]; 48 h, pH 5, read-out: % Residual Activity): 2%
activity at 25 mg ([1]; 48 h, pH 5.5, read-out: % Residual Activity): 82%
activity at 25 mg [1, 5]: 83%
activity at 2000 µg/mL [1, 13]: 83%
activity at 25 mg [1, 14]: 77%
activity at 25 mg ([1]; 48 h, pH 8, read-out: % Residual Activity): 42%

O=C(O)CO [Glycolic acid]
activity at 2000 µg/mL [1, 2]: 52%

CC(O)C(N)=O (stereo not shown) [Lactamide]
activity at 2000 µg/mL [1, 6]: 50%

CC(C)C#N [Isobutyronitrile]
activity at 25 mg ([1]; 48 h, pH 5; read-out: % Residual Activity): 3%
activity at 25 mg [1, 5]: 82%
activity at 2000 µg/mL [1, 4]: 88%
activity at 25 mg [1, 14]: 77%
activity at 25 mg ([1]; 48 h, pH 8; read-out: % Residual Activity): 45%

CCC(N)=O [Propionamide]
activity at 2000 µg/mL [1, 6]: 83%

CC(O)C#N (stereo not shown) [Lactonitrile]
activity at 2000 µg/mL [1, 4]: 49%

CCCC#N [n-Butyronitrile]
activity at 2000 µg/mL [1, 4]: 93%
remaining activity at 100 µg/mL [1, 7]: 82%
remaining activity at 10 µg/mL ([1]; stabilizer concentration 0.01 g/l; pH 6.0; […]; 20° C. for 2 days; read-out: % Residual Activity): 60%
remaining activity at 1000 µg/mL [1, 9]: 88%
remaining activity at 5000 µg/mL ([1]; stabilizer concentration 5.0 g/l; pH 6.0; […]; 20° C. for 2 days; read-out: % Residual Activity): 86%
remaining activity at 20000 µg/mL [1, 15]: 70%

C=CC(N)=O [Acrylamide]
activity at 2000 µg/mL [1, 16]: 63%

O=C(O)CCl [Monochloroacetic acid]
activity at 2000 µg/mL [1, 3]: 39%

NC(=O)c1cccnc1 [Nicotinamide]
activity at 2000 µg/mL [1, 16]: 39%

NC(=O)c1ccccc1 [Benzamide]
activity at 2000 µg/mL [1, 6]: 47%

CCCCC(N)=O [n-Valeramide]
activity at 2000 µg/mL [1, 6]: 78%

N#Cc1ccccc1 [Benzonitrile]
activity at 2000 µg/mL [1, 12]: 44%

CCC#N [Propionitrile]
activity at 2000 µg/mL [1, 4]: 83%

N#CCN [Glycine nitrile]
activity at 2000 µg/mL [1, 4]: 58%

N#CCCCCC#N [Adiponitrile]
activity at 2000 µg/mL [1, 4]: 68%

CCCCC#N [n-Valeronitrile]
activity at 2000 µg/mL [1, 4]: 82%

O=CO [Formic acid]
activity at 2000 µg/mL [1, 13]: 48%

NC(=O)CCO [β-Hydroxypropionamide]
activity at 2000 µg/mL [1, 6]: 61%

CC(N)=O [Acetamide]
activity at 2000 µg/mL [1, 6]: 57%

C=C(C)C#N [Methacrylonitrile]
activity at 2000 µg/mL [1, 4]: 62%

O=CC(=O)O [Glyoxylic acid]
activity at 2000 µg/mL [1, 2]: 72%

CC#N [Acetonitrile]
activity at 2000 µg/mL ([1]; 48 h, pH 6.5, read-out: % Residual Activity (Nitrile Added)): 61%

N#CCC(N)=O [Cyanoacetamide]
activity at 2000 µg/mL [1, 4]: 53%

NC(=O)CC(N)=O [Malondiamide]
activity at 2000 µg/mL [1, 6]: 48%

CCCCCC(=O)O [Caproic acid]
activity at 2000 µg/mL [1, 3]: 78%

NCCC(N)=O [β-Aminopropionamide]
activity at 2000 µg/mL [1, 6]: 52%

NCC(N)=O [Glycine amide]
activity at 2000 µg/mL [1, 6]: 49%

NCCC(=O)O [β-Aminopropionic acid]
activity at 2000 µg/mL [1, 13]: 45%

C=C(C)C(=O)O [Methacrylic acid]
activity at 2000 µg/mL [1, 3]: 59%

N#CCCCl [β-Chloropropionitrile]
activity at 2000 µg/mL [1, 4]: 63%

CCC(=O)O [Propionic acid]
activity at 2000 µg/mL [1, 13]: 78%

CC(=O)O [Acetic acid]
activity at 2000 µg/mL [1, 13]: 55%

N#CCCl [Chloroacetonitrile]
activity at 2000 µg/mL [1, 4]: 58%

O=C(O)CCC(=O)O [Succinic acid]
activity at 2000 µg/mL [1, 13]: 59%

CCCC(=O)O [Butyric acid]
remaining activity at 100 µg/mL [1, 7]: 87%
remaining activity at 10 µg/mL [1, 8]: 63%
remaining activity at 1000 µg/mL ([1]; stabilizer concentration 1.0 g/l; pH 6.0; extract 0.7×10^3 U/ml; 20° C. for 2 days; read-out: % Residual Activity): 92%
remaining activity at 5000 µg/mL [1, 10]: 90%
remaining activity at 20000 µg/mL [1, 15]: 85%
remaining activity at 50000 µg/mL [1, 11]: 67%

CCCCCC#N [n-Capronitrile]
activity at 2000 µg/mL [1, 4]: 71%

NC(=O)CCC(N)=O [Succindiamide]
activity at 2000 µg/mL [1, 6]: 63%

C=CC(=O)O [Acrylic acid]
activity at 2000 µg/mL [1, 3]: 53%

N#CCCO [β-Hydroxypropionitrile]
activity at 2000 µg/mL [1, 4]: 78%

O=C(O)CC(=O)C(=O)O [Oxalacetic acid]
activity at 2000 µg/mL [1, 2]: 68%

NC(=O)CCCl [β-Chloropropionamide]
activity at 2000 µg/mL [1, 6]: 68%
